# In US4563451A, “Quinazolino-1,4-benzodiazepin-5,13-diones” (Merck & Co., Inc., priority 1985, dated 1986):
# Where a SMILES comes first, the peptide text is derived from it. [ ]: non-standard residue; d: D form. The star is where a group is joined. sY = N[C@@H](Cc1ccc(OS(=O)(=O)O)cc1)C(=O)O; Cbz = O=C(OCc1ccccc1)*; Boc = CC(C)(C)OC(=O)*
# Target: T1, CCK receptor (pancreas) (Rattus norvegicus, UniProt P30551)
# T1 construct: The whole pancreas of a male Sprague-Dawley rat; from tissue; host or cells: whole pancreas of male Sprague-Dawley rat, washed membrane suspension
# T1 sequence (P30551 1-444): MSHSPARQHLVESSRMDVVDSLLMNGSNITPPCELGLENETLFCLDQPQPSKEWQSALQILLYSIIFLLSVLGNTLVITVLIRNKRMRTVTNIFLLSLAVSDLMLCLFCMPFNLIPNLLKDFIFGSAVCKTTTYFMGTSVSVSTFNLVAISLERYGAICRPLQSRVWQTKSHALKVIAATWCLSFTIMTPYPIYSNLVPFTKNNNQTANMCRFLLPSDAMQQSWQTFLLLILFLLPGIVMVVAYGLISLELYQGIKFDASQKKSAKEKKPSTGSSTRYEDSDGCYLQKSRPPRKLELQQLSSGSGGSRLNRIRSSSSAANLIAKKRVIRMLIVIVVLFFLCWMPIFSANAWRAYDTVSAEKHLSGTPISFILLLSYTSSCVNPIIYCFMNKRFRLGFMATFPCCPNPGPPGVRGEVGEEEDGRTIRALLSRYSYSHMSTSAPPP
# Assay: CCK receptor binding (pancreas) method; I-CCK-8 pancreas assay (CCK-antagonism)
# Design: species or system male Sprague-Dawley rat
# Conditions: 125I-CCK binding, rat pancreas membranes, 37° C., 30 minutes; read-out: Anti-CCK Activity IC50
# Excerpt: Screening of the novel compounds according to the present invention to determine biological activity and obtain an IC50 value for them, in order to identify significant CCK-antagonism, may be accomplished using an ^125 I-CCK receptor binding assay and in vitro isolated tissue preparations. These tests involve the following:
# CCK receptor binding (pancreas) method
# CCK-33 is radiolabeled with ^125 I-Bolton Hunter reagent (2000 Ci/mmole), as described by Sankara et al. (J. Biol. Chem., 254, 9349-9351, 1979). Receptor binding is performed according to Innis and Snyder (Proc. Natl. Acad. Sci., 77, 6917-6921, 1980), with the minor modification of adding the additional protease inhibitors, phenyl-methane sulfonyl fluoride and o-phenanthroline, which have no effect on the ^125 I-CCK receptor binding assay.
# The whole pancreas of a male Sprague-Dawley rat (200-350 g), which has been sacrificed by decapitation, is dissected free of fat tissue and homogenized in 20 volumes of ice-cold 50 mM Tris HCl (pH 7.7 at 25° C.) with a Brinkman Polytron PT-10. The homogenates are centrifuged at 48,000 g for 10 minutes, then the resulting pellets are resuspended in Tris Buffer, centrifuged as above, and resuspended in 200 volumes of binding assay buffer (50 mM Tris HCl, pH 7.7 at 25° C., 5 mM dithiothreitol, 0.1 mM bacitracin, 1.2 mM phenylmethane sulfonyl fluoride and 0.5 mM o-phenanthroline).
# For the binding assay, 25 μl of buffer (for total binding), or unlabeled CCK-8 sulfate sufficient to give a final concentration of 1 μM of CCK-8 (for nonspecific binding), or the compounds of the formula of the compounds according to the instant invention (for determination of antagonism to ^125 I-CCK binding) and 25 μl of ^125 I-CCK-33 (30,000-40,000 cpm), are added to 450 μl of the membrane suspensions in microfuge tubes. All assays are run in duplicate or triplicate, and the reaction mixtures are incubated at 37° C. for 30 minutes and centrifuged in a Beckman Microfuge (4 minutes) immediately after adding 1 ml of ice-cold incubation buffer. The supernatant is aspirated and discarded, and the pellets are counted with a Beckman Gamma 5000.
# Activity Testing with I-CCK-8 Pancreas Assay
# The compounds of Examples 1-11 were tested as CCK-antagonists (pancreas assay) with the following results: […]
row,Compound,IC50
1,"CC(C)C[C@H]1C(=O)N2c3ccccc3[C@@](O)(C[C@@H]3NC(=O)c4ccccc4-n4c3nc3ccccc3c4=O)[C@H]2N1C(=O)[C@H](Cc1ccc(OCc2ccccc2)cc1)NC(=O)OC(C)(C)C [Example 7, 7-{{1-[N-((1,1-dimethylethoxy)carbonyl)-o-phenylmethyltryosyl]-2,3,9,9Aα-tetrahydro-9α-hydroxy-2-(2-methylpropyl)-3-oxo-1H-imidazo(1,2-A)indol-9-yl}methyl}quinazolino(3,2-A)-1,4-benzodiazepin-5,13-(6H,7H)-dione]",100 µM
2,"CC(=O)N1[C@H]2N(C(=O)[C@@H]1CC(C)C)c1ccccc1[C@@]2(O)C[C@@H]1NC(=O)c2ccccc2-n2c1nc1ccccc1c2=O [Example 2, 7-[(1-acetyl-2,3,9,9Aα-tetrahydro-9α-hydroxy-2-(2-methylpropyl)-3-oxo-1H-imidazo(1,2-A)indol-9-yl)methyl]quinazolino(3,2-A)-1,4-benzodiazepin-5,13-(6H,7H)-dione]",22 µM
3,"CC(C)CC1C(=O)N2c3ccccc3C(O)(CC3NC(=O)c4ccccc4-n4c3nc3ccccc3c4=O)C2N1CCCc1ccccc1 (stereo not drawn) [Example 6, 7-[1-(3-phenylpropyl)-2,3,9,9Aα-tetrahydro-9α-hydroxy-2-(2-methylpropyl)-3-oxo-1H-imidazo(1,2-A)indol-9-yl)methyl]-6,7,7A,8-tetrahydro-5H,13H-quinazolino(3,2-A)-1,4-benzazepin-5H,13-dione sesquihydrate]",0.19 µM
4,"CC(C)C[C@H]1C(=O)N2c3ccccc3[C@@](O)(C[C@@H]3NC(=O)c4ccccc4N4C(=O)c5ccccc5NC34)[C@H]2N1C(=O)C(CCCNC(=O)OCc1ccccc1)NC(=O)OC(C)(C)C (stereo partly drawn) [Example 11, 7-{{1-[2-((1,1-dimethylethoxy)carbonyl)amino-5-(phenylmethyloxycarbonyl)aminopentanoyl]-2,3,9,9Aα-tetrahydro-9α-hydroxy-2-(2-methylpropyl)-3-oxo-1H-imidazo(1,2-A)indol-9-yl}methyl}-6,7,7A,8-tetrahydro-5H,13-quinazolino(3,2-A)-1,4-benzodiazepin-5H,13-dione hydrate]",1.3 µM
5,"CC(C)C[C@@H]1N[C@H]2N(C1=O)c1ccccc1[C@@]2(O)C[C@@H]1NC(=O)c2ccccc2N2C(=O)c3ccccc3NC12 (stereo partly drawn) [Example 1, 7,7a-dihydro-7-[(2,3,9,9Aα-tetrahydro-9α-hydroxy-2-(2-methylpropyl)-3-oxo-1H-imidazo(1,2-a)indol-9-yl)methyl]quinazolino(3,2-a)(1,4)benzazepin-5,13-(6H,7H)dione hydrate]",0.21 µM
6,"CC(C)C[C@H]1C(=O)N2c3ccccc3[C@@](O)(C[C@@H]3NC(=O)c4ccccc4-n4c3nc3ccccc3c4=O)[C@H]2N1C(=O)C(CCCCNC(=O)OCc1ccccc1)NC(=O)OC(C)(C)C (stereo partly drawn) [Example 9, 7-{{1-[2-((1,1-dimethylethoxy)carbonyl)amino-6-(phenylmethyloxycarbonyl)aminohexanoyl]-2,3,9,9Aα-tetrahydro-9α-hydroxy-2-(2-methylpropyl)-3-oxo-1H-imidazo(1,2-A)indol-9-yl}methyl}quinazolino(3,2-A)-1,4-benzodiazepin-5,13-(6H,7H)-dione hydrate]",100 µM
7,"CC(C)C[C@H]1C(=O)N2c3ccccc3[C@@](O)(C[C@@H]3NC(=O)c4ccccc4-n4c3nc3ccccc3c4=O)[C@H]2N1C(=O)[C@H](Cc1ccc(O)cc1)NC(=O)OC(C)(C)C [Example 8, 7-{{1-[2-((1,1-dimethylethoxy)carbonyl)amino-3-(4-hydroxyphenyl)propanoyl]-2,3,9,9Aα-tetrahydro-9α-hydroxy-2-(2-methylpropyl)-3-oxo-1H-imidazo(1,2-A)indol-9-yl}methyl}quinazolino(3,2-A)-1,4-benzodiazepin-5,13-(6H,7H)-dione hemihydrate]",46 µM
8,"CC(C)C[C@H]1C(=O)N2c3ccccc3[C@@](O)(C[C@@H]3NC(=O)c4ccccc4-n4c3nc3ccccc3c4=O)[C@H]2N1C(=O)C(CCCNC(=O)OCc1ccccc1)NC(=O)OC(C)(C)C (stereo partly drawn) [Example 10, 7-{{1-[2-((1,1-dimethylethoxy)carbonyl)amino-5-(phenylmethyloxycarbonyl)aminopentanoyl]-2,3,9,9Aα-tetrahydro-9α-hydroxy-2-(2-methylpropyl)-3-oxo-1H-imidazo(1,2-A)indol-9-yl}methyl}quinazolino(3,2-A)-1,4-benzodiazepin-5,13-(6H,7H)-dione]",4.3 µM
9,"CCN1[C@H]2N(C(=O)[C@@H]1CC(C)C)c1ccccc1[C@@]2(O)C[C@@H]1NC(=O)c2ccccc2N2C(=O)c3ccccc3NC12 (stereo partly drawn) [Example 3, 7-[(1-ethyl-2,3,9,9Aα-tetrahydro-9α-hydroxy-2-(2-methylpropyl)-3-oxo-1H-imidazo(1,2-A)indol-9-yl)methyl]-6,7,7A,8-tetrahydro-5H,13H-quinazolino-(3,2-A)-1,4-benzazepin-5H,13-dione hemihydrate]",0.35 µM
10,CC(C)CC1C(=O)N2c3ccccc3C(O)(CC3NC(=O)c4ccccc4-n4c3nc3ccccc3c4=O)C2N1C(=O)OCc1ccccc1 (stereo not drawn) [Example 4],5 µM
11,"CC(C)C[C@H]1C(=O)N2c3ccccc3[C@@](O)(C[C@@H]3NC(=O)c4ccccc4N4C(=O)c5ccccc5NC34)[C@H]2N1O (stereo partly drawn) [Example 5, 7,7α-dihydro-7-[(2,3,9,9Aα-tetrahydro-1,9α-dihydroxy-2-(2-methylpropyl)-3-oxo-1H-imidazo-(1,2-A)-indol-9-yl)methyl]quinazolino(3,2-A)-1,4-benzodiazepin-5,13(6H,7H)-dione hydrate]",0.67 µM

# Same assay, conditions: added protease inhibitor in the binding assay
row,Compound,effect on the 125I-CCK receptor binding assay
1,"c1cnc2c(c1)ccc1cccnc12 [o-phenanthroline, reference compound]",no effect
2,"O=S(=O)(F)Cc1ccccc1 [phenyl-methane sulfonyl fluoride, reference compound]",no effect

# System: CCK-receptor
# Assay: not given
# Conditions: background; cited from earlier work
row,Compound,CCK-antagonism (in words)
1,CCCC(=O)Nc1nc2c(ncn2[C@@H]2O[C@@H]3COP(=O)(O)O[C@H]3[C@H]2OC(=O)CCC)c(=O)[nH]1 [dibutyryl cyclic GMP],the most potent
2,CSCC[C@H](N)C(=O)N[C@@H](CC(=O)O)C(=O)N[C@@H](Cc1ccccc1)C(N)=O [Met--Asp--Phe--NH2] (H-Met-Asp-Phe-NH2),can function as CCK-antagonists
3,CSCC[C@H](NC(=O)OC(C)(C)C)C(=O)N[C@@H](CC(=O)O)C(=O)N[C@@H](Cc1ccccc1)C(N)=O [Boc--Met--Asp--Phe--NH2] (Boc-Met-Asp-Phe-NH2),can function as CCK-antagonists
4,"CC(C)C[C@@H]1N[C@H]2N(C1=O)c1ccccc1[C@@]2(O)C[C@@H]1NC(=O)c2ccccc2-n2c1nc1ccccc1c2=O [formula (I), 7β-((2,3,9,9Aα-tetrahydro-9α-hydroxy-2-(2-methylpropyl)-3-oxo-1H-imidazo-(1,2-A)-indol-9-yl)-methyl)quinazolino(3,2-A)(1,4)benzodiazepin-5,13-(6H,7H)dione]",has been shown to be a CCK-antagonist
5,CSCC[C@H](NC(=O)[C@H](Cc1ccc(OS(=O)(=O)O)cc1)NC(=O)OCc1ccccc1)C(=O)NCC(=O)N[C@@H](Cc1c[nH]c2ccccc12)C(=O)N[C@@H](CCSC)C(=O)N[C@@H](CC(=O)O)C(N)=O [Cbz--Tyr(SO3 H)--Met--Gly--Trp--Met--Asp--NH2] (Cbz-[sY]MGWMD-NH2),can function as CCK-antagonists
